Measurements: US11203563B2, “Preparation of zinc linolenate, and application of zinc linolenate in preparing anti-helicobacter pylori drug” (NANJING MEDICAL UNIVERSITY, priority 2018, dated 2021)

Assays:
Helicobacter pylori G27 = assay: MIC by broth microdilution method; type: cell-based; set-up: key: +: Bacterial growth; −: No bacterial growth; conditions: G27 (Sensitive), 72 h
Protocol: (§1) 2.1 Detection of minimum inhibitory concentration (MIC, 100 µL system) of zinc linolenate for Helicobacter pylori by a broth microdilution method
(§2) (1) Zinc linolenate (2 mg/mL) is prepared.
(§3) (3) Bacterial solution preparation: the Helicobacter pylori grown in a log phase on a solid plate is taken to make a bacterial suspension with a BHI culture medium, the absorbance (OD600) is adjusted to 0.3 (1×10^8 CFU/mL), and the bacterial suspension is diluted 10 times to 1×10^7 CFU/mL for later use.
(§4) (4) Inoculation of bacterial solution: 10 μL of bacterial solution above is taken and added to the 1-8th wells (the concentration of the bacterial solution per well is about 1.0×10^6 CFU/mL). Culture is performed for 72 h to judge the result. The drug concentrations of the 1-7th wells are 64, 32, 16, 8, 4, 2, and 1 μg/mL, respectively.
(§5) The experiment only makes sense when the bacteria obviously grow in the 8th well, i.e. the positive control well (without antibiotics). When a single drift occurs in the microdilution method, the maximum drug concentration that inhibits bacterial growth should be recorded. If there are multiple drifts, the results should not be reported and the experiment should be repeated. The experiment is repeated 3 times for each drug.

[1] = test system: Helicobacter pylori HP159; assay: MIC by broth microdilution method; type: cell-based; set-up: key: +: Bacterial growth; −: No bacterial growth; conditions: HP159 (Levofloxacin, clarithromycin and metronidazole resistant), 72 h
Protocol: as §1, §2, §3, §4, §5

[2] = test system: Helicobacter pylori HP162; assay: MIC by broth microdilution method; type: cell-based; set-up: key: +: Bacterial growth; −: No bacterial growth; conditions: HP162 (Levofloxacin resistant), 72 h
Protocol: as §1, §2, §3, §4, §5

[3] = test system: Helicobacter pylori HP26695; assay: MIC by broth microdilution method; type: cell-based; set-up: key: +: Bacterial growth; −: No bacterial growth; conditions: HP26695 (Sensitive), 72 h
Protocol: as §1, §2, §3, §4, §5

[4] = Blood biochemical indexes of liver and kidney functions, infected and treated mice; conditions: infected mice, therapeutic dose (omeprazole 138.2, amoxicillin 28.5, clarithromycin 14.3, zinc linolenate 24 mg/kg), intragastric, serum
Protocol: (2) Animal administration: the experimental group is intragastrically administered. The group with omeprazole is administered with omeprazole first, and then administered with other drugs 30 min later. After the mice are administered with the drugs, the mice fast for 4 hours. Calculated according to an average of 20 g/mouse of the weight of mice, the dosage is: omeprazole 138.2 mg/kg, amoxicillin 28.5 mg/kg, clarithromycin 14.3 mg/kg, and zinc linolenate 24 mg/kg, once a day for 5 consecutive times. The negative control group is administered with a PBS solution with the same dosage and number of times as above.
(3) Efficacy test: the mice in the infection group are weighed and the average weight is calculated on the 2 days after the drug is stopped. Blood is taken from the eyeballs and the mice are sacrificed by cervical dislocation. Stomach tissue is taken, and the isolation, culture and identification of Helicobacter pylori are the same as in 2.3.3 (3) and (4).
(§6) (4) Efficacy test: the mice in the infection group are weighed 3 days after the drug is stopped, and the average weight is calculated. Blood is taken from the eyeballs, and the mice are sacrificed by cervical dislocation. Stomach, kidney, liver and spleen tissues are taken, pathologically sectioned and HE stained, and serum is tested for liver and kidney functions.

Ges-1 cells = type: cell-based
Source text: (§7) 2.4.1 Cytotoxicity detection

AGS cells = test system: AGS cells
Protocol: as §7
(1) Ges-1 and AGS cell suspensions are prepared, and the concentration is adjusted to 1×10^6.
(2) Inoculation into a 96-well plate: 100 μL is added per well, and 3 replicates is performed for the same sample.
(3) Culture is performed for 12 hours in an incubator at 37° C.
(4) 10 μL of zinc linolenate, 10 μL of linolenic acid, and 10 μL of zinc chloride are added respectively, and the working concentrations are 400 μg/mL, 300 μg/mL, 200 μg/mL, 100 μg/mL, and 0 μg/mL, respectively. A group added with drugs and without cells and a PBS control group are set.
(5) Culture is performed for 12 hours in an incubator at 37° C.
(6) 10 μL of CCK-8 is added, mixed by tapping and incubated for 4 hours.
(7) The absorbance at 450 nm is measured, and the survival rate is calculated according to the formula: cell proliferation rate[(As−Ab)]/[(Ac−Ab)]×100%, wherein As are wells containing the cell culture medium, drugs, and CCK-8; Ac are wells containing the cell culture medium, CCK-8, and no drug; and Ab are wells containing no cells and drugs, but only the culture medium and CCK-8. A survival curve is established based on the survival rate.

[5] = Animal toxicity, 10 times the therapeutic dose
Protocol: (1) Preparation of mice: 20 8-week-old C57BL/6 mice are randomly divided into an administration group containing 10 mice and a negative control group containing 10 mice.
(2) Intragastric administration: administration is performed with 10 times the therapeutic dose of zinc linolenate, that is, administration is performed according to 240 mg/kg per mouse, once a day for 3 consecutive days. The negative control group is administered with a PBS solution, and the number of times and dose are same as those in the administration group.
(3) Weighing of weight: the weight of mice is weighed 1 day before administration for 7 consecutive days.
as §6

CC/C=C\C/C=C\C/C=C\CCCCCCCC(=O)[O-].CC/C=C\C/C=C\C/C=C\CCCCCCCC(=O)[O-].[Zn+2] [zinc linolenate]
Bacterial growth (Helicobacter pylori G27; zinc linolenate 1 μg/ml): +
Bacterial growth (Helicobacter pylori G27; zinc linolenate 2 μg/ml): +
Bacterial growth (Helicobacter pylori G27; zinc linolenate 4 μg/ml): −
Bacterial growth (Helicobacter pylori G27; zinc linolenate 8 μg/ml): −
Bacterial growth (Helicobacter pylori G27; zinc linolenate 16 μg/ml): −
Bacterial growth (Helicobacter pylori G27; zinc linolenate 32 μg/ml): −
Bacterial growth (Helicobacter pylori G27; zinc linolenate 64 μg/ml): −
Bacterial growth ([1]; zinc linolenate 1 μg/ml): +
Bacterial growth ([1]; zinc linolenate 2 μg/ml): +
Bacterial growth ([1]; zinc linolenate 4 μg/ml): +
Bacterial growth ([1]; zinc linolenate 8 μg/ml): −
Bacterial growth ([1]; zinc linolenate 16 μg/ml): −
Bacterial growth ([1]; zinc linolenate 32 μg/ml): −
Bacterial growth ([1]; zinc linolenate 64 μg/ml): −
Bacterial growth ([2]; zinc linolenate 1 μg/ml): +
Bacterial growth ([2]; zinc linolenate 2 μg/ml): −
Bacterial growth ([2]; zinc linolenate 4 μg/ml): −
Bacterial growth ([2]; zinc linolenate 8 μg/ml): −
Bacterial growth ([2]; zinc linolenate 16 μg/ml): −
Bacterial growth ([2]; zinc linolenate 32 μg/ml): −
Bacterial growth ([2]; zinc linolenate 64 μg/ml): −
Bacterial growth ([3]; zinc linolenate 1 μg/ml): +
Bacterial growth ([3]; zinc linolenate 2 μg/ml): +
Bacterial growth ([3]; zinc linolenate 4 μg/ml): +
Bacterial growth ([3]; zinc linolenate 8 μg/ml): −
Bacterial growth ([3]; zinc linolenate 16 μg/ml): −
Bacterial growth ([3]; zinc linolenate 32 μg/ml): −
Bacterial growth ([3]; zinc linolenate 64 μg/ml): −
Alanine aminotransferase [4]: 50.00 U/L
Aspartate aminotransferase [4]: 192.33 U/L
Blood urea nitrogen [4]: 14.97 mmol/L
Creatinine [4]: 18.33 µmol/L
toxicity compared with linolenic acid (Ges-1 cells): smaller than that of linolenic acid
toxicity compared with linolenic acid (AGS cells): smaller than that of linolenic acid
weight of the mice ([5]; 240 mg/kg (10 times the therapeutic dose), intragastric, once a day for 3 days, weighed 7 consecutive days): does not change significantly
Alanine aminotransferase ([5]; mouse, in vivo, 240 mg/kg): 23.33 U/L
Aspartate aminotransferase ([5]; mouse, in vivo, 240 mg/kg): 138.33 U/L
Blood urea nitrogen ([5]; mouse, in vivo, 240 mg/kg): 11.90 mmol/L
Creatinine ([5]; mouse, in vivo, 240 mg/kg): 15.00 µmol/L
